This is an account of results in ChEMBL document CHEMBL1177693, “Antimalarials from nature” (Bioorg Med Chem, 2009).

Molecules are shown by their SMILES. In brackets after ≈: the same amount, converted by molar mass.

Assay [1] concerns Plasmodium falciparum. Nature of the assay: Antimalarial activity against chloroquine-sensitive Plasmodium falciparum D10. It counts as functional, organism-based.
Assay [2] deals with Plasmodium falciparum. Nature of the assay: Antimalarial activity against chloroquine-sensitive Plasmodium falciparum 3D7. It counts as functional, organism-based.
Assay [3] concerns Plasmodium falciparum. Nature of the assay: Antimalarial activity against Plasmodium falciparum W2. It is filed as functional, organism-based.
In assay [4] the test system is Plasmodium falciparum. In words: Antimalarial activity against Plasmodium falciparum FCA 20. It counts as functional, organism-based.
The test system of assay [5] is Plasmodium falciparum. In words: Antimalarial activity against Plasmodium falciparum FCB1-R. It is filed as functional, organism-based.
Assay [6] deals with Plasmodium falciparum. Nature of the assay: Antimalarial activity against Plasmodium falciparum infected in erythrocytes. It is filed as functional, organism-based.
Assay [7] is described as follows: Cytotoxicity against erythrocytes assessed as morphological changes. The note with it: Erythrocyte. It is filed as cell-based.
In assay [8] the test system is Plasmodium falciparum. Nature of the assay: Antimalarial activity against Plasmodium falciparum after 48 hrs. It counts as functional, organism-based.
Assay [9] concerns Plasmodium falciparum. Nature of the assay: Antimalarial activity against Plasmodium falciparum after 32 hrs. It counts as functional, organism-based.
The test system of assay [10] is Plasmodium falciparum. In words: Antimalarial activity against Plasmodium falciparum after 72 hrs. It is filed as functional, organism-based.
In the next assay the test system is Plasmodium berghei. Nature of the assay: Antiplasmodial activity against chloroquine-sensitive Plasmodium berghei. It is filed as functional, organism-based.
Assay [11] relates to Plasmodium falciparum. Nature of the assay: Antimalarial activity against Plasmodium falciparum infected in perorally dosed mice (Mus musculus) administered for 4 days. It is filed as functional. The note with it: po, 96 h.
The test system of assay [12] is Plasmodium falciparum. Nature of the assay: Antimalarial activity against Plasmodium falciparum infected in intravenously dosed mice (Mus musculus) administered for 4 days. It is filed as functional. The note with it: iv, 96 h.
Assay [13] relates to Plasmodium falciparum. Nature of the assay: Antimalarial activity against chloroquine-susceptible Plasmodium falciparum D6. It is filed as functional, organism-based.
The test system of assay [14] is Plasmodium falciparum. In words: Antimalarial activity against chloroquine-resistant Plasmodium falciparum W2. It is filed as functional, organism-based.
Assay [15] concerns Plasmodium falciparum. Nature of the assay: Antimalarial activity against chloroquine-resistant Plasmodium falciparum FCB1. It is filed as functional, organism-based. The following applies: FcB1/Columbia.
Assay [16] concerns Plasmodium falciparum. In words: Antimalarial activity against Plasmodium falciparum FCA. It counts as functional, organism-based.
The test system of assay [17] is Plasmodium falciparum. Nature of the assay: Antimalarial activity against chloroquine-sensitive Plasmodium falciparum. It counts as functional, organism-based.
The test system of assay [18] is Plasmodium falciparum. Nature of the assay: Antimalarial activity against chloroquine-resistant Plasmodium falciparum. It counts as functional, organism-based.
Assay [19] concerns Plasmodium falciparum. Nature of the assay: Antimalarial activity against Plasmodium falciparum D6. It is filed as functional, organism-based.
For assay [20], the system named is Plasmodium falciparum. In words: Antimalarial activity against Plasmodium falciparum FCR3F86. It is filed as functional, organism-based.
For assay [21], the system named is Plasmodium falciparum. Nature of the assay: Antimalarial activity against multidrug-resistant Plasmodium falciparum K1 infected in erythrocytes. It counts as functional, organism-based.
For assay [22], the system named is Plasmodium falciparum. In words: Antimalarial activity against drug-susceptible Plasmodium falciparum NF54 infected in erythrocytes. It is filed as functional, organism-based.
Assay [23] has as its target T1, Enoyl-acyl-carrier protein reductase (Plasmodium falciparum, UniProt Q965D5).
T1 sequence (Q965D5 whole entry): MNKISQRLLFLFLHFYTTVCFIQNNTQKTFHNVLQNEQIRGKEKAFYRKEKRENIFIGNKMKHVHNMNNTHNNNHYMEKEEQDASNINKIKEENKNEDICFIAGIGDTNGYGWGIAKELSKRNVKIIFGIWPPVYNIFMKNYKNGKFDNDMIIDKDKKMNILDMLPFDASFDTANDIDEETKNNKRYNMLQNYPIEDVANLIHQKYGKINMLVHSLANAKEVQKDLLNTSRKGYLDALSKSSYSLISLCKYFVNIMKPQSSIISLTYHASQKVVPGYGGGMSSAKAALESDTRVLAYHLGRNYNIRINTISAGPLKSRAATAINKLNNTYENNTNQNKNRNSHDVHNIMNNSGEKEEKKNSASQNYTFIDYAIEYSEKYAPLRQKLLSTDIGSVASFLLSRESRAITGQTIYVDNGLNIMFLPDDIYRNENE
In words: (§1) Inhibition of Plasmodium falciparum Fabl.

Assay [24] is described as follows: (§2) Inhibition of Plasmodium falciparum FabG.
Assay [25] has as its system Plasmodium falciparum. Nature of the assay: Antimalarial activity against Plasmodium falciparum 3D7. It counts as functional, organism-based.
Assay [26] concerns the target T2, Enoyl-acyl-carrier protein reductase (Plasmodium falciparum) (UniProt Q965D5).
T2 sequence (whole entry): T1 sequence (Q965D5 whole entry)
The description is as §1.

Assay [27] has as its system Plasmodium falciparum. The description is as §2. The note with it: concentration not given here.

Broadly, the IC50 is the concentration that gives 50% inhibition. `COc1cc(O)cc2c1c(=O)c1ccccc1n2C` [TEGERRARDIN A] gave an IC50 in the assay on Plasmodium falciparum [1] of 12300 nM.

`COc1cc(O)c2c(c1)O[C@H](c1ccccc1)CC2=O` [PINOSTROBIN]: in the assay with Plasmodium falciparum [2], the 50% inhibitory concentration (IC50) is above 100000 nM. As to `C=Cc1c[n+]2c(c(O)c1C[C@H]1c3[nH]c4ccccc4c3CCN1C)-c1[nH]c3c([C@H]4CCCN4C)c(O)ccc3c1CC2` [CHRYSOPENTAMINE], the IC50 in the assay with Plasmodium falciparum [3], in the assay with Plasmodium falciparum [4] and with Plasmodium falciparum [5] was 500 nM throughout. Regarding `CC(C)c1ccc2c(c1)CC[C@H]1[C@](C)(CO)CCC[C@]21C` [POMIFERIN A], the IC50 came out at 25600 nM with Plasmodium falciparum [6] and 28000 nM in assay [7]. Regarding `CC(C)=CCC/C(C)=C/CC/C(C)=C/CC[C@@]1(C)[C@H](CCCO)/C(=C(/C)C=O)CC[C@]1(C)O` [IRIDAL], the IC50 came to 26 µg/mL (≈ 56.7 µM) in the assay on Plasmodium falciparum [8], 14 µg/mL (≈ 30.5 µM) with Plasmodium falciparum [9] and 1.8 µg/mL (≈ 3.92 µM) in the assay with Plasmodium falciparum [10]. Broadly, the ED50 is the dose at which the effect has come halfway, by size or by number of responders. A lower ED50 goes with greater potency. In the assay with Plasmodium berghei, `COC(C)(C)[C@@H]1C=C2C(=O)[C@H]3O[C@H]3C3C=CC(C2C(=O)/C1=C/CO)[C@H]3O` (stereo not given in full) had an ED50 of 5.2 mg/kg and an IC50 of 2.1 nM. Turning to `C[C@H]1[C@@H](CC(COC(=O)c2cc[n+]([O-])cc2)C[C@H]2O[C@@H]3O[C@]4(C)CC[C@H]5[C@H](C)CC[C@@H]([C@H]2C)[C@@]35OO4)O[C@@H]2O[C@]3(C)CC[C@H]4[C@H](C)CC[C@@H]1[C@@]24OO3` (stereo not given in full), the ED50 with Plasmodium falciparum [11] came to 2 mg/kg; in the assay on Plasmodium falciparum [12] it was 0.8 mg/kg. Regarding `CO[C@H]1C[C@@H]([C@@H](O)[C@@](C)(OC)[C@H](C)OC)O[C@]2(O[C@](C)([C@H]3CC[C@@H]([C@H]4CC[C@H]([C@H]5O[C@](C)(O)[C@H](C)[C@@H](O)[C@@H]5C)O4)O3)[C@H](OC)[C@H]2C)[C@H]1C`, the IC50 in the assay with Plasmodium falciparum [13] and in the assay with Plasmodium falciparum [14] was 0.1 µg/mL (≈ 0.145 µM) each time.

On to `O=C(Oc1cc(O)cc2c1C[C@H](O)[C@@H](c1ccc(O)c(O)c1)O2)c1cc(O)c(O)c(O)c1`, for which, in the assay with Plasmodium falciparum [15], 1200 nM corresponded to half-maximal inhibition (IC50). With `C=C1C(=O)O[C@@H]2/C=C(/C)C(=O)/C=C/[C@](C)(O)C[C@@H](OC(=O)C(C)C)[C@@H]12` [TAGITININ C], the IC50 in the assay with Plasmodium falciparum [16] was found to be 0.33 µg/mL (≈ 0.947 µM). Regarding `Cc1c2c(cc3c1C(=O)C=C(C(C)C)C3=O)C(C)(C)CCC2` [12,16-DIDEOXY AEGYPTINONE B], the IC50 in the assay with Plasmodium falciparum [17] was determined as 1.3 µg/mL (≈ 4.39 µM); in the assay with Plasmodium falciparum [18], 1.4 µg/mL (≈ 4.72 µM). `Cc1cc(=O)c(O)cc2c1C[C@H]1CC(C)(C)/C=C/C[C@@]3(C)Oc4cc(O)c(=O)cc(C)c4C[C@@H]3C[C@H](O)[C@]1(C)O2` [PYCNIDIONE]: the values for the IC50 with Plasmodium falciparum [19], in the assay on Plasmodium falciparum [20] and in the assay with Plasmodium falciparum [3] were 750 nM, 280 nM and 370 nM, respectively.

In the case of `COc1cc(/C=C2/Cc3c(OC(C)=O)cc(OC(C)=O)cc3O2)cc(OC)c1OC(C)=O`, the IC50 stood at 7 nM with Plasmodium falciparum [21] and 180 nM in the assay with Plasmodium falciparum [22]. Take `C=C1C(=O)OC[C@H]1[C@@H](/C=C(\C)CC(=O)C=C(C)C)OC(C)=O`: the IC50 in [23] is 65300 nM; in [24], 20 µg/mL (≈ 65.3 µM). Compound `CCCCCCCc1cc(/C=C2\N=C(c3ccc[nH]3)C=C2OC)[nH]c1C` [HEPTYL PRODIGIOSIN] showed an IC50 with Plasmodium falciparum [25] of 70 nM. Broadly, the inhibition is the change of the read-out against control, counted positive when it falls. The compound `C=C1C(=O)OC[C@H]1[C@H](O)/C=C(\C)CC(=O)C=C(C)C` yielded a fold change (FC) in [26] of 5. Besides, the inhibition in the assay on Plasmodium falciparum [27] was found to be 25%.
